Data published in PMC2730633 (Bioorganic & medicinal chemistry letters, 2009).
pEC50: −log10 of the molar value. Blank lines part the entries; values can stand above or below the compound they belong to.

Columns and labels:
[1] = molecular target: Tel-Src (Homo sapiens, UniProt P12931+P41212); assay: Tyrosine kinase transformed Ba/F3 cellular assay; type: cell-based; details: for cellular activity against Src-family kinases (Tel-Src): Ba/F3
[2] = molecular target: Tel-Lyn (Homo sapiens, UniProt P07948+P41212); assay: Tyrosine kinase transformed Ba/F3 cellular assay; type: cell-based; details: for cellular activity against Src-family kinases (Tel-Lyn): Ba/F3
[3] = test system: b-raf, CSF1R, DDR1, DDR2, EphA2, EphA5, EphA8, EphB1, EphB2, EphB3, Frk, Kit, Lck, p38α, p38β, PDGFRα, PDGFRβ, Raf1; assay: Ambit KinomeScan panel of 402 kinases, single concentration; type: binding; details: single concentration of 10 µM
[4] = molecular target: T1, EphA6 (Homo sapiens, UniProt Q9UF33); assay: KinomeScan dose-response dissociation constant; details: KinomeScan binding
T1 sequence (Q9UF33 23-1036): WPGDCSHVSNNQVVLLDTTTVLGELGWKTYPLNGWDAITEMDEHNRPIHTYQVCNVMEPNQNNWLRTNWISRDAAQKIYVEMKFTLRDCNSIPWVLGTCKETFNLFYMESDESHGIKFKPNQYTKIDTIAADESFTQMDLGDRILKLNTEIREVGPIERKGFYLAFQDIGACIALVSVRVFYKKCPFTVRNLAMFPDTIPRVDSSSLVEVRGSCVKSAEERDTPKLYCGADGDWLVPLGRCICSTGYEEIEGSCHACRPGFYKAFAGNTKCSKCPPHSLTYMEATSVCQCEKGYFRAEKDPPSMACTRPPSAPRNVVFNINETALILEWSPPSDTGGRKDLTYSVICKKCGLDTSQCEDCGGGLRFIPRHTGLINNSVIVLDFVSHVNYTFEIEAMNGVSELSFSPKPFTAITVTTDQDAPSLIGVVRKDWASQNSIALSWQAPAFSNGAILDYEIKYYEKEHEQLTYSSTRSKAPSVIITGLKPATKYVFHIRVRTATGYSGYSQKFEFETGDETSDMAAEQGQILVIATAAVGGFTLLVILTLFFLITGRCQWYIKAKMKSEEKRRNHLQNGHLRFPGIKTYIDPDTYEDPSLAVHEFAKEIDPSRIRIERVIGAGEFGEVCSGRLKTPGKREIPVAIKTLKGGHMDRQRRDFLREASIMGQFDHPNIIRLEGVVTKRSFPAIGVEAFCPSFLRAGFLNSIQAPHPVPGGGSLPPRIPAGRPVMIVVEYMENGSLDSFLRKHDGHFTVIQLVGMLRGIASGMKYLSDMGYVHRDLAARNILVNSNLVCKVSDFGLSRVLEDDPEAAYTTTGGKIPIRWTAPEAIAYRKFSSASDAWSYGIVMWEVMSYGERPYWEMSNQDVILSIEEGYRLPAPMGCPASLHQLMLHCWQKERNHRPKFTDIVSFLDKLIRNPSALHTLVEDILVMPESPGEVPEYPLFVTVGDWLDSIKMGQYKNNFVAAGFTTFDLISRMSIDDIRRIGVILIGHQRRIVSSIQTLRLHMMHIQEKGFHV

[5] = molecular target: EphA7 (Homo sapiens, UniProt Q15375); assay: KinomeScan dose-response dissociation constant; type: binding; details: for inhibition of EphA7: KinomeScan binding
[6] = molecular target: T2, EphB1 (Homo sapiens, UniProt P54762); assay: KinomeScan dose-response dissociation constant; details: KinomeScan binding
T2 sequence (P54762 18-984): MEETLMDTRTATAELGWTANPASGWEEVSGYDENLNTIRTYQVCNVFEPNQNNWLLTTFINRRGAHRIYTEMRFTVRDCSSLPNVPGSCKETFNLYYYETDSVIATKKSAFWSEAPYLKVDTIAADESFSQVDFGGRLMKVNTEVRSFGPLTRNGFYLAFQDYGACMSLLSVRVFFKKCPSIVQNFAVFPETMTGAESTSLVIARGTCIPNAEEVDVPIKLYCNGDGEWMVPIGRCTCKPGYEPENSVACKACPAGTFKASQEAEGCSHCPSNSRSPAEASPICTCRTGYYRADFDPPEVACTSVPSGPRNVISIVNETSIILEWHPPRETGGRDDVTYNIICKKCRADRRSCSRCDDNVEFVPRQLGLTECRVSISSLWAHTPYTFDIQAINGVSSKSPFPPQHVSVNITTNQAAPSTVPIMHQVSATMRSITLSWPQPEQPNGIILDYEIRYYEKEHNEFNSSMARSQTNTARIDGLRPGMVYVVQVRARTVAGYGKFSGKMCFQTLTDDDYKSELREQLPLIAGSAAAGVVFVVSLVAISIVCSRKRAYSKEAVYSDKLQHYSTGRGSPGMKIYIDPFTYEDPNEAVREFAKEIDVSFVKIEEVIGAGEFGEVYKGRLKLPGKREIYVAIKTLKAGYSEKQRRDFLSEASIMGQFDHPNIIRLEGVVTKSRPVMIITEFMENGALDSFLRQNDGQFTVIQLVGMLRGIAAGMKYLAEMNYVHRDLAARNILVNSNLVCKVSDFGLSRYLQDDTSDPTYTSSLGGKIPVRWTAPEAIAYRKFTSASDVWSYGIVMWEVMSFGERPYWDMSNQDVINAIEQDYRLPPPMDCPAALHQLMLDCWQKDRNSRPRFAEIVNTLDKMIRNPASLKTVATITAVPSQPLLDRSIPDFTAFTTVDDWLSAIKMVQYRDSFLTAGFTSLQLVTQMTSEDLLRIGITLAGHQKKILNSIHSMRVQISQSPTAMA

[7] = molecular target: b-raf (Homo sapiens, UniProt P15056); assay: Cellular activity against b-raf; type: cell-based
[8] = molecular target: T3, Tel fusion of EphA3 (Homo sapiens, UniProt P29320); assay: Tyrosine kinase transformed Ba/F3 cellular assay; type: cell-based; details: Ba/F3 cells transformed with Tel fusion of EphA3
T3 sequence (P29320 621-882): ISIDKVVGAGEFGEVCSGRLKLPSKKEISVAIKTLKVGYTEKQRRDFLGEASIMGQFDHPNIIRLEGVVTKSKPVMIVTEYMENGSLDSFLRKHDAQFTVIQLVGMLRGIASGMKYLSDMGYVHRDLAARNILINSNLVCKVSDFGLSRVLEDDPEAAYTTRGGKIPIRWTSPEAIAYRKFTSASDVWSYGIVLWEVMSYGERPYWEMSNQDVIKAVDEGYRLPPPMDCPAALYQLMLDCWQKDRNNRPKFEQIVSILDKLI
T3 sequence (P41212 40-124 partner): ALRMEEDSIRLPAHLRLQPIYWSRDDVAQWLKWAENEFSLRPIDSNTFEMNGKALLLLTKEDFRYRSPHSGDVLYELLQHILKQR

[9] = molecular target: Bcr-Abl (Homo sapiens, UniProt P00519+P11274); assay: Tyrosine kinase transformed Ba/F3 cellular assay; type: cell-based; details: for cross reactivity with Bcr-Abl: Ba/F3 panel screen
[10] = test system: Eph-family kinases; assay: Invitrogen SelectScreen biochemical kinase activity assay; details: [Km,app] ATP, starting concentration 10 µM
[11] = molecular target: FGFR2 (Homo sapiens, UniProt P21802); assay: Tyrosine kinase transformed Ba/F3 cellular assay; type: cell-based; details: Ba/F3 panel screen, printed FGFR2/3/4
[12] = molecular target: FGFR3 (Homo sapiens, UniProt P22607); assay: Tyrosine kinase transformed Ba/F3 cellular assay; type: cell-based; details: Ba/F3 panel screen, printed FGFR2/3/4
[13] = molecular target: FGFR4 (Homo sapiens, UniProt P22455); assay: Tyrosine kinase transformed Ba/F3 cellular assay; type: cell-based; details: Ba/F3 panel screen, printed FGFR2/3/4
[14] = molecular target: T4, EphB2 (Homo sapiens, UniProt P29323); details: proteomic and cellular screening approaches ref 10, 9; cited from earlier work
T4 sequence (P29323 19-1055): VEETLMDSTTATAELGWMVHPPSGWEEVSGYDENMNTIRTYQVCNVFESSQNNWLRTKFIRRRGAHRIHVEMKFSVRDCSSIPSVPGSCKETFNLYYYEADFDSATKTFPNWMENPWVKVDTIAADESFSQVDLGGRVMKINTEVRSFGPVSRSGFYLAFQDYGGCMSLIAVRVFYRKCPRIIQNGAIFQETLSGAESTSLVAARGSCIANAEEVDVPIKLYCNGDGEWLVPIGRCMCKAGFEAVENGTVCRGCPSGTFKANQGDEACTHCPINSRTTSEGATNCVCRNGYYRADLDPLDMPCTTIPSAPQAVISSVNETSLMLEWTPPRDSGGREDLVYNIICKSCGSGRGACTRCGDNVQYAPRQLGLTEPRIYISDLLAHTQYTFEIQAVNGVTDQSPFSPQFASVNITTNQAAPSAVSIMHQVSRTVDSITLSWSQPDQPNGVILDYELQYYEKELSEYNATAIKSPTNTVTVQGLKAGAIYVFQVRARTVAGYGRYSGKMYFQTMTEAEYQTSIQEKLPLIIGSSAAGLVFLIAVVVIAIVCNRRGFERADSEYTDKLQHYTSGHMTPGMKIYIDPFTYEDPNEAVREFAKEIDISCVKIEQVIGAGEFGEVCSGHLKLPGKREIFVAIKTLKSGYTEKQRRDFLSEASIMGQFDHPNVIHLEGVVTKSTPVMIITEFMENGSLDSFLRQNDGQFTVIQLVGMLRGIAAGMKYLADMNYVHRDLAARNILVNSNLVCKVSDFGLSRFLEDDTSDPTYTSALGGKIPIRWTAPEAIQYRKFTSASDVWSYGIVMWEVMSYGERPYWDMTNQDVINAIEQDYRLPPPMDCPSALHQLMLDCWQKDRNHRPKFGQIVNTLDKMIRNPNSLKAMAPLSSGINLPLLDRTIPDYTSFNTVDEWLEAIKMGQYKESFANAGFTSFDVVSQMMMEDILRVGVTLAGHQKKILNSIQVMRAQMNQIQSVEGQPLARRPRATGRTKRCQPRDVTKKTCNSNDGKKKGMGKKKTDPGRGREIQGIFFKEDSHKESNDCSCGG

[15] = test system: Bcr-Abl threonine to isoleucine gatekeeper substitution; details: threonine to isoleucine substitution of the gatekeeper position ref 21; cited from earlier work

Sequence of EphA7 (Q15375 28-998, species assumed): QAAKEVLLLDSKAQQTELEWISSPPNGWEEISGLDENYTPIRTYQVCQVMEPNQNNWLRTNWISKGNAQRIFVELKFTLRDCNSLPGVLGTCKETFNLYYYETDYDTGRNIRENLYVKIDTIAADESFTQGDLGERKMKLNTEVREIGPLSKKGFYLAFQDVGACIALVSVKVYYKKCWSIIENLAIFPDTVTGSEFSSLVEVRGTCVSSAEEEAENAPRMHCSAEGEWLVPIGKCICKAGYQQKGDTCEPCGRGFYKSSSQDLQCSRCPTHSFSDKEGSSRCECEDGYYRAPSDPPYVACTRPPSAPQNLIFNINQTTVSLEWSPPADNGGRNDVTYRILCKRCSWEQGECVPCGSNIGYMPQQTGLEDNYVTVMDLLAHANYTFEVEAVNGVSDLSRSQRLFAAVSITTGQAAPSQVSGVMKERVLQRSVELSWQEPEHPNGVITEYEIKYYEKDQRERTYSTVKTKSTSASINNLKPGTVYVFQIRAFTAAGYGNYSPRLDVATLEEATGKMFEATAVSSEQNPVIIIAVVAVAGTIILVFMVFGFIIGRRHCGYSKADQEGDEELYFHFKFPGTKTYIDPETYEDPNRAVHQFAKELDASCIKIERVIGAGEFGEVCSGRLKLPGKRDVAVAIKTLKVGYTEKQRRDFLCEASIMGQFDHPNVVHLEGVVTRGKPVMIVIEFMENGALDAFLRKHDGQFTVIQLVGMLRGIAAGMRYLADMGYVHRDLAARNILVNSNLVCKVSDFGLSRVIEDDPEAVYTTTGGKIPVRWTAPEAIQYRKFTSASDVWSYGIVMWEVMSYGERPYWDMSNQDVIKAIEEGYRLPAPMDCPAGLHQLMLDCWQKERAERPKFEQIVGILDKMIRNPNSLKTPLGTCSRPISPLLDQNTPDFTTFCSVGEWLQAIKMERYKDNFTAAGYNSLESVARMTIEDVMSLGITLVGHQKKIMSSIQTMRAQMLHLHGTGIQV
Sequence of Bcr-Abl (P00519 28-1130 limits assumed, one chain of several): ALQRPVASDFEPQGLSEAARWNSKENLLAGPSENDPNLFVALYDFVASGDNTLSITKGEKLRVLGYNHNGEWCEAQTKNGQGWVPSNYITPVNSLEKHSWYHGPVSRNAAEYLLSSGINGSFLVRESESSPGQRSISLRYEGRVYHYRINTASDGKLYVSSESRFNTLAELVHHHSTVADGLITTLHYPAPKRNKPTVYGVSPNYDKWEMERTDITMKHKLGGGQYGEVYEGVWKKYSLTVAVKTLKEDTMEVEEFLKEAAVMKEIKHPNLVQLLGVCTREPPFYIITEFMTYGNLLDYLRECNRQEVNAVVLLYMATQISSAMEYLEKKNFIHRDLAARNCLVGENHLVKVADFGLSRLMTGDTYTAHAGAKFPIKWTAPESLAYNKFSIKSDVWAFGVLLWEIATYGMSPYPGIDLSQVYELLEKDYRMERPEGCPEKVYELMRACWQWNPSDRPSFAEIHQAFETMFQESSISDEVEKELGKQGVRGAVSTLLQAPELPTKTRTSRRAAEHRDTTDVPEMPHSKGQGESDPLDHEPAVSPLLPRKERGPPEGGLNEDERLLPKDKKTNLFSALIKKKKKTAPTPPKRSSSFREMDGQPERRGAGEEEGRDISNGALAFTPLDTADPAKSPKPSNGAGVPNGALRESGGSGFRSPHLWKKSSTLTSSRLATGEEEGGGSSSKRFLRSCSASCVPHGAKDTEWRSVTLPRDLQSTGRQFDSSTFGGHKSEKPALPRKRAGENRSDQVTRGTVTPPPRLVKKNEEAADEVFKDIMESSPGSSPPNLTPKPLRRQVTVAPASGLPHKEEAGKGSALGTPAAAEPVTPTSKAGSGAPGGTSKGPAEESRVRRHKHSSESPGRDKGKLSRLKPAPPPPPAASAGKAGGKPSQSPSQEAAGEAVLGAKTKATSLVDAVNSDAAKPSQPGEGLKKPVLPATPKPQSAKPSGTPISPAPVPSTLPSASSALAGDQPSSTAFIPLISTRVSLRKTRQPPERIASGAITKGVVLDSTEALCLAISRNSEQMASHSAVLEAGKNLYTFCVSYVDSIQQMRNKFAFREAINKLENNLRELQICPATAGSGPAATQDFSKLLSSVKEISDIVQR
Sequence of Tel-Src (P12931 270-523 limits assumed, one chain of several): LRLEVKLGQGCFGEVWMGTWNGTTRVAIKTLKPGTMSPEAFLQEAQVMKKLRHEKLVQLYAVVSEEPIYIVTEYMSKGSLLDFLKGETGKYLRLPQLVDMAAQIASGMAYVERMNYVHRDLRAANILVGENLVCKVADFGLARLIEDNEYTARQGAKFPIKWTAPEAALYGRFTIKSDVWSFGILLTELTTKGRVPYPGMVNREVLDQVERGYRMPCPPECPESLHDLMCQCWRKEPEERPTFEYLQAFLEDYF
Sequence of Tel-Lyn (P07948 247-501 limits assumed, one chain of several): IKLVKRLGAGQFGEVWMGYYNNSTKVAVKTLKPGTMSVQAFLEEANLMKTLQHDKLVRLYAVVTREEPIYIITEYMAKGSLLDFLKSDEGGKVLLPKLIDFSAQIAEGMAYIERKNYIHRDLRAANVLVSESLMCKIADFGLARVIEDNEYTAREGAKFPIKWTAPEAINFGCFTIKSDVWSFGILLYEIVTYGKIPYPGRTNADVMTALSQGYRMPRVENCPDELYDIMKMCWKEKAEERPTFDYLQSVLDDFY
Sequence of b-raf (P15056 whole entry, species assumed, the tested form may be a part): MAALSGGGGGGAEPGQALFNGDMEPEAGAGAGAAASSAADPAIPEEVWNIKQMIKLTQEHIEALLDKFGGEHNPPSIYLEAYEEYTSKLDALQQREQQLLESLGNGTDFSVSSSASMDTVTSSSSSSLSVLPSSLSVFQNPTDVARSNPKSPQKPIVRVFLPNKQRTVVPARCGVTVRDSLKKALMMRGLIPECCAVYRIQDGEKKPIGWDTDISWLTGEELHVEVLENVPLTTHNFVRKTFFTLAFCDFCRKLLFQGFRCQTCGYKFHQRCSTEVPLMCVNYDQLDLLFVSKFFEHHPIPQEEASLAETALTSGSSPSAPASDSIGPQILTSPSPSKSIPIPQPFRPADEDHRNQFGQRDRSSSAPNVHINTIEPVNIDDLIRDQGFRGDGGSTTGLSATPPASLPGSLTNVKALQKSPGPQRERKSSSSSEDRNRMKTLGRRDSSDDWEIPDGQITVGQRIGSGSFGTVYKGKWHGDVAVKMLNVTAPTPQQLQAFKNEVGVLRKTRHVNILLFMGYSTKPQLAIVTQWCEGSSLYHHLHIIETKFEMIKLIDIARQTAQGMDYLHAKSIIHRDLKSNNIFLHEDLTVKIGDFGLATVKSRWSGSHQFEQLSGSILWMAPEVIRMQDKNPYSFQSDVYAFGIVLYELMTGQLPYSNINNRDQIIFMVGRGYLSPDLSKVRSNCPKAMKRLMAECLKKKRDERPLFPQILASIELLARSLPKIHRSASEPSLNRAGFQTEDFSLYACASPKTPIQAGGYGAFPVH
Sequence of FGFR3 (P22607 472-761 limits assumed): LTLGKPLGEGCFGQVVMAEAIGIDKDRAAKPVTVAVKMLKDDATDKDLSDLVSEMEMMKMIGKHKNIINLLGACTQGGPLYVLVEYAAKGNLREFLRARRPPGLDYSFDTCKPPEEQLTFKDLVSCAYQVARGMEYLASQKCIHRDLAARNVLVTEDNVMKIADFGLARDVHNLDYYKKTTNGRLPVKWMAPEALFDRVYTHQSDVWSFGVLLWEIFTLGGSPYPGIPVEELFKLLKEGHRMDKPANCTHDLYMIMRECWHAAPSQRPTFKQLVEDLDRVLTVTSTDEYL
Sequence of FGFR4 (P22455 467-755 limits assumed): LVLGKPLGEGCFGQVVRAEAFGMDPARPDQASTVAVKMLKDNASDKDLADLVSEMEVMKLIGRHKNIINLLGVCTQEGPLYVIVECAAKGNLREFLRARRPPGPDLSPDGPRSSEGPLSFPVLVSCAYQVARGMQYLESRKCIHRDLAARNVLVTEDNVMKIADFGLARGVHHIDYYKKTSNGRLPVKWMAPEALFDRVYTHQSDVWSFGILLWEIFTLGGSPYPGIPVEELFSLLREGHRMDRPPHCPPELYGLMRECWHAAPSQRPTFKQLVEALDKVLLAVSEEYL
Sequence of FGFR2 (P21802 481-770 limits assumed, species assumed): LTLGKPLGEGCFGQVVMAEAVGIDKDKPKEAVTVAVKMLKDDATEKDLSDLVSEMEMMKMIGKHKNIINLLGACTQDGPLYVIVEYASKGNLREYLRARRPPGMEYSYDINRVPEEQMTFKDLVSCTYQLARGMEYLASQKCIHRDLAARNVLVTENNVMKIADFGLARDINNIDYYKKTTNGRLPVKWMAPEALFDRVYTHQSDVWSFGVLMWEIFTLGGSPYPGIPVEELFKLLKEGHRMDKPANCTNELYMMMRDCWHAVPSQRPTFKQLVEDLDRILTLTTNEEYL

Compound: Cc1cn(-c2cc(NC(=O)c3ccc(C)c(NC(=O)c4ccno4)c3)cc(C(F)(F)F)c2)cn1 [Compound 6]
- cellular activity against Src-family kinases (Tel-Src) [1]: did not exhibit significant cellular activity
- cellular activity against Src-family kinases (Tel-Lyn) [2]: did not exhibit significant cellular activity
- selectivity profile (binding to kinases) [3]: binding to a common set of kinases
- inhibition of EphA6 [4]: not inhibited
- inhibition of EphA7 [5]: not inhibited
- inhibition of EphB1 [6]: not inhibited
- cellular activity against b-raf [7]: did not exhibit significant cellular activity

Compound: Cc1nc(Nc2ncc(C(=O)Nc3c(C)cccc3Cl)s2)cc(N2CCN(CCO)CC2)n1 [dasatinib]
- EphB2 as target [14]: identified as a target

Compound: Cc1cn(-c2cc(NC(=O)c3ccc(C)c(Nc4nccc(-c5cccnc5)n4)c3)cc(C(F)(F)F)c2)cn1 [nilotinib]
- EphB2 as target [14]: identified as a target
- inhibition of Bcr-Abl gatekeeper mutation [15]: not inhibited

Now from value to compound, other results behind:

- pEC50 [8]: > 6.30
- pEC50 [1]: > 6.30
- pEC50 ([2]; Ba/F3 cells transformed with Tel fusion of Lyn): > 6.30
- pEC50 ([9]; Ba/F3 cells transformed with Bcr-Abl): > 6.30
- cross reactivity with Bcr-Abl [9]: cross reactivity
Compound: CCN1CCN(Cc2ccc(NC(=O)c3ccc(C)c(NC(=O)c4cncc(-c5cccs5)c4)c3)cc2C(F)(F)F)CC1 [Compound 7]
- selectivity profile (binding to kinases) [3]: inhibited all these kinases and many more

- cross reactivity with Bcr-Abl [9]: cross reactivity
- selectivity profile (binding to kinases) [3]: binding to a common set of kinases
- inhibition of EphA6 [4]: not inhibited
- inhibition of EphA7 [5]: not inhibited
- inhibition of EphB1 [6]: not inhibited
Compound: Cc1ccc(C(=O)Nc2cccc(C(F)(F)F)c2)cc1Nc1ccc2occc(=O)c2c1 [Compound 8]

- selectivity profile (binding to kinases) [3]: binding to a common set of kinases
- inhibition of EphA6 [4]: not inhibited
- affinity for EphA7 [5]: relatively low affinity
- inhibition of EphA7 [5]: not inhibited
- inhibition of EphB1 [6]: not inhibited
Compound: Cc1ccc(C(=O)Nc2cccc(C(F)(F)F)c2)cc1Nc1cncc(C(N)=O)c1 [Compound 9]
- cellular activity against Src-family kinases (Tel-Src) [1]: did not exhibit significant cellular activity
- cellular activity against Src-family kinases (Tel-Lyn) [2]: did not exhibit significant cellular activity
- selectivity and potency (IC50) [10]: good selectivity for Eph-family kinases with moderate potency
- cellular activity against b-raf [7]: did not exhibit significant cellular activity

- cross reactivity with FGFR2 [11]: cross reactivity
- cross reactivity with FGFR3 [12]: cross reactivity
- cross reactivity with FGFR4 [13]: cross reactivity
Compound: Cc1ccc(C(=O)Nc2cccc(C(F)(F)F)c2)cc1Nc1[nH]cnc2ncnc1-2 [Compound 10]
